In ChEMBL document CHEMBL4177594, “Design, synthesis, and evaluation of salicyladimine derivatives as multitarget-directed ligands against Alzheimer's disease” (Bioorg Med Chem, 2017):
Activity calls are given as the source filed them. The calls are words filed in the database; no cut-off is given here.

What was measured:
[1] = tested on: PC-12; test: Neuroprotective activity against H2O2-induced apoptosis in rat PC12 cells assessed as necrosis cells level at 12.5 uM after 24 hrs by Annexin V/FITC/propidium iodide staining-based flow cytometry (reference value: 0.1%); assay type: functional
[2] = tested on: PC-12; test: Cytotoxicity against rat PC12 cells at 25 uM after 24 hrs by MTT assay; assay type: cell-based; details: pc-12, 24 h
[3] = tested on: PC-12; test: Neuroprotective activity against H2O2-induced apoptosis in rat PC12 cells assessed as viable cells level at 25 uM after 24 hrs by Annexin V/FITC/propidium iodide staining-based flow cytometry (reference value: 96.2%); assay type: functional
[4] = tested on: PC-12; test: Neuroprotective activity against H2O2-induced apoptosis in rat PC12 cells assessed as early apoptosis cells level at 12.5 uM after 24 hrs by Annexin V/FITC/propidium iodide staining-based flow cytometry (reference value: 1.8%); assay type: functional
[5] = tested on: PC-12; test: Antioxidant activity against H2O2-induced oxidative stress in rat PC12 cells assessed as reduction in intracellular ROS levels after 48 hrs by DCFH-DA staining based flow cytometry; assay type: functional, cell-based
[6] = Antioxidant activity assessed as ABTS radical scavenging activity at 25 uM after 6 mins; assay type: functional
[7] = biological target: T1, Amine oxidase [flavin-containing] A (Homo sapiens, UniProt P21397); test: Inhibition of human MAO-A at 200 uM using p-tyramine as substrate preincubated for 15 mins followed by substrate addition measured after 20 mins by fluorescence-based Amplex Red MAO assay
T1 sequence (P21397 whole entry): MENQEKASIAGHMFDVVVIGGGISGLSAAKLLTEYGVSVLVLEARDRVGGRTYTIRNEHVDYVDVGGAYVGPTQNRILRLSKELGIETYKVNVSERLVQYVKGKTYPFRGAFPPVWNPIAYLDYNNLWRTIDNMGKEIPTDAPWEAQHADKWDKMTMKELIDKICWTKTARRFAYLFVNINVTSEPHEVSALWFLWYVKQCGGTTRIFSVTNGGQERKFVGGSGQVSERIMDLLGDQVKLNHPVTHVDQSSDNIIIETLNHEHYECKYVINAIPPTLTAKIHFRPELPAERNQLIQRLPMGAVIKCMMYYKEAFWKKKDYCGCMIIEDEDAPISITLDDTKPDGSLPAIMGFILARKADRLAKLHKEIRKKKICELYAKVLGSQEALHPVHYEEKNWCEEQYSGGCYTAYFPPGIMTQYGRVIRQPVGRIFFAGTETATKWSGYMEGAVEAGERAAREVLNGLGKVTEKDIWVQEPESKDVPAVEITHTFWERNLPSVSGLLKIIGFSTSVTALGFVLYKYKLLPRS

[8] = tested on: PC-12; test: Neuroprotective activity against H2O2-induced apoptosis in rat PC12 cells assessed as early apoptosis cells level at 25 uM after 24 hrs by Annexin V/FITC/propidium iodide staining-based flow cytometry (reference value: 1.8%); assay type: functional
[9] = tested on: PC-12; test: Neuroprotective activity against H2O2-induced apoptosis in rat PC12 cells assessed as late apoptosis cells level at 6.25 uM after 24 hrs by Annexin V/FITC/propidium iodide staining-based flow cytometry (reference value: 1.9%); assay type: functional
[10] = tested on: PC-12; test: Neuroprotective activity against H2O2-induced apoptosis in rat PC12 cells assessed as apoptotic cells at 12.5 uM after 24 hrs by Annexin V/FITC/propidium iodide staining-based flow cytometry (reference value: 52.3%); assay type: functional
[11] = biological target: Amyloid-beta precursor protein (Homo sapiens) (UniProt P05067); test: Inhibition of self-induced aggregation of amyloid beta (1 to 42 residues) (unknown origin) at 25 uM incubated for 48 hrs by Thioflavin T fluorescence assay relative to control
[12] = tested on: PC-12; test: Neuroprotective activity against H2O2-induced apoptosis in rat PC12 cells assessed as necrosis cells level at 50 uM after 24 hrs by Annexin V/FITC/propidium iodide staining-based flow cytometry (reference value: 0.1%); assay type: functional
[13] = Metal chelating activity assessed as compound-Fe2+ complex formation after 30 mins by UV-Vis spectrophotometry based Job's plot
[14] = tested on: PC-12; test: Neuroprotective activity against H2O2-induced apoptosis in rat PC12 cells assessed as late apoptosis cells level at 25 uM after 24 hrs by Annexin V/FITC/propidium iodide staining-based flow cytometry (reference value: 1.9%); assay type: functional
[15] = tested on: PC-12; test: Neuroprotective activity against H2O2-induced cytotoxicity in rat PC12 cells assessed as increase in cell viability at 6.25 to 25 uM preincubated for 24 hrs followed by H2O2 addition and measured after 24 hrs by MTT assay; assay type: functional, cell-based
[16] = tested on: PC-12; test: Neuroprotective activity against H2O2-induced apoptosis in rat PC12 cells assessed as early apoptosis cells level at 50 uM after 24 hrs by Annexin V/FITC/propidium iodide staining-based flow cytometry (reference value: 1.8%); assay type: functional
[17] = tested on: BV-2; test: Neuroprotective activity against LPS-induced inflammation in mouse BV2 cells assessed as inhibition of LPS-induced NO production at 10 to 25 uM after 24 hrs in presence of LPS by Griess reaction based assay relative to resveratrol; assay type: functional, cell-based
[18] = organism: Homo sapiens; test: Selectivity index, ratio of IC50 for human MAO-A to IC50 for human MAO-B
[19] = biological target: T2, Amine oxidase [flavin-containing] B (Homo sapiens, UniProt P27338); test: Inhibition of human MAO-B using p-tyramine as substrate preincubated for 15 mins followed by substrate addition measured after 20 mins by fluorescence-based Amplex Red MAO assay
T2 sequence (P27338 whole entry): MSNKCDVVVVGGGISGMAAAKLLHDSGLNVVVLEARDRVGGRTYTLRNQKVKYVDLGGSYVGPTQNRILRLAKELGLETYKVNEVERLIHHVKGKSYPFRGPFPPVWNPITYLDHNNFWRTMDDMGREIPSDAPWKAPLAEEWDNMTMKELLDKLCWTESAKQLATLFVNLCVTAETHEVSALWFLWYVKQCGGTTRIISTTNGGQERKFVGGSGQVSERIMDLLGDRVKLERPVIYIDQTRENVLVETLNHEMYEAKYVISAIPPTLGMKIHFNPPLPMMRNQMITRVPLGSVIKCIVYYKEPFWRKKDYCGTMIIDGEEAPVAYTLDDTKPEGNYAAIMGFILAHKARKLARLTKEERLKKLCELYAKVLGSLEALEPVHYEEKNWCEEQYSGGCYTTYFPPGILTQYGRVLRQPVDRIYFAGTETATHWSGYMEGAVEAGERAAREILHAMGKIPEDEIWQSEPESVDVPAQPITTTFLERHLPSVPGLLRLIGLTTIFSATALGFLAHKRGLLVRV

[20] = tested on: PC-12; test: Neuroprotective activity against H2O2-induced apoptosis in rat PC12 cells assessed as late apoptosis cells level at 50 uM after 24 hrs by Annexin V/FITC/propidium iodide staining-based flow cytometry (reference value: 1.9%); assay type: functional
[21] = tested on: PC-12; test: Neuroprotective activity against H2O2-induced apoptosis in rat PC12 cells assessed as necrosis cells level at 25 uM after 24 hrs by Annexin V/FITC/propidium iodide staining-based flow cytometry (reference value: 0.1%); assay type: functional
[22] = Antioxidant activity assessed as DPPH radical scavenging activity after 30 mins; assay type: functional
[23] = in vitro; parameters: dose or concentration left out as unconfirmed; details: PAMPA
Description: Permeability of the compound at 100 mg/ml after 16 hrs by BBB-PAMPA method

[24] = Metal chelating activity assessed as compound-Fe3+ complex formation after 30 mins by UV-Vis spectrophotometry based Job's plot

Chain of Amyloid-beta precursor protein (Homo sapiens) (P05067 whole entry, the tested form may be a part): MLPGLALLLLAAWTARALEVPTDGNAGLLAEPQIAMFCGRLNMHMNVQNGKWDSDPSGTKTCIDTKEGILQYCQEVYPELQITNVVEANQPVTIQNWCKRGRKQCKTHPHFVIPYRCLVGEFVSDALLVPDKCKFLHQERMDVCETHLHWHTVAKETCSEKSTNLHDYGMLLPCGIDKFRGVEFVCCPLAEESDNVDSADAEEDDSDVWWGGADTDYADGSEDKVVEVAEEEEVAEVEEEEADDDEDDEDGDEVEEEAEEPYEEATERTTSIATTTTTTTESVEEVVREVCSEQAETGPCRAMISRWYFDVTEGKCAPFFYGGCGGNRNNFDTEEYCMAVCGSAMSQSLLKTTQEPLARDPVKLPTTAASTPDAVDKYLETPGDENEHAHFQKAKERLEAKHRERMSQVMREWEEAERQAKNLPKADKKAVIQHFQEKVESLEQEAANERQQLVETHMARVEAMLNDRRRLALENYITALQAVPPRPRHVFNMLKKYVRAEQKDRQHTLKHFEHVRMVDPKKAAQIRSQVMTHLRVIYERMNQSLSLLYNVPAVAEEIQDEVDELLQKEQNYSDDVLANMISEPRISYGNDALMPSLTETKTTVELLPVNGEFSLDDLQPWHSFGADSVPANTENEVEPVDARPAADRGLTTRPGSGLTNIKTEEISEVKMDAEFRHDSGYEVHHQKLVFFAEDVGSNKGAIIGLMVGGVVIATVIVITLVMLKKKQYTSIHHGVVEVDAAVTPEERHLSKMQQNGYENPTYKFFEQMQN

**Q.** For Oc1ccc(/C=N/c2ccc(OCc3ccccc3)cc2)c(O)c1O, which Activity [1] is on record?
**A.** Its Activity is 0.4%.

**Q.** And the Activity [2]?
**A.** Its Activity is “Non-Toxic”.

**Q.** What about the Activity [3] of the same compound?
**A.** Its Activity is 87.7%.

**Q.** What about the Activity [4] of the same compound?
**A.** The Activity was 25.7%.

**Q.** What about the Activity [5] of the same compound?
**A.** The Activity was “Dose-dependent effect”.

**Q.** And the Activity (umolequiv/umol) [6]?
**A.** Its Activity (umolequiv/umol) is 0.67.

**Q.** And the “inhibition (INH)” value [7]?
**A.** Its value is “Not Active”.

**Q.** And the Activity [8]?
**A.** The Activity was 8.5%.

**Q.** What about the Activity [9] of the same compound?
**A.** Its Activity is 11.9%.

**Q.** What about the Activity [10] of the same compound?
**A.** Its Activity is 29.9%.

**Q.** And the inhibition [11]?
**A.** The inhibition was 91.3%.

**Q.** What about the Activity [12] of the same compound?
**A.** The Activity was 3%.

**Q.** What about the log K [13] of the same compound?
**A.** Its log K is 6.3.

**Q.** And the Activity [14]?
**A.** Its Activity is 2.7%.

**Q.** What about the Activity [15] of the same compound?
**A.** The Activity was “Active”.

**Q.** What about the Activity [16] of the same compound?
**A.** Its Activity is 3.7%.

**Q.** And the Activity [17]?
**A.** The Activity was “Active”.

**Q.** What about the Ratio IC50 [18] of the same compound?
**A.** Its Ratio IC50 is over 57.8.

**Q.** And the IC50 [19]?
**A.** The IC50 was 1.73 µM.

**Q.** And the Activity [20]?
**A.** The Activity was 2.3%.

**Q.** And the Activity [21]?
**A.** Its Activity is 1.1%.

**Q.** And the IC50 [22]?
**A.** The IC50 was 43.4 µM.

**Q.** What about the Papp at 16 h [23] of the same compound?
**A.** The Papp at 16 h was 5.75 ×10⁻⁶ cm/s.

**Q.** What about the log K [24] of the same compound?
**A.** The log K was 6.19.
